Results published in patent US20100035943A1, “Oxa-and thiadiazoles and their use as metalloproteinase inhibitors” (VERNALIS (OXFORD) LTD, priority 2002, published 2010).

Columns and labels:
Format in all cases: biochemical
92 kDa gelatinase (MMP9) = 92 kDa gelatinase (MMP9) (Homo sapiens, UniProt P14780); test: MMP9 enzyme inhibition assay (fluorogenic peptide substrate McaPLGLDpaAR); conditions: recombinant human 92 kDa gelatinase, 37° C., 2 hours
Experimental: (§1) Compounds were tested for inhibitory activity against 92 kDa gelatinase (MMP9) in an assay using a coumarin-labelled peptide substrate, (7-methoxycoumarin-4-yl)acetyl-Pro-Leu-Gly-Leu-(3-[2,4-dinitrophenyl]-L-2,3-diaminopropionyl)-Ala-Arg-NH2 (McaPLGLDpaAR) (Knight et al, FEBS Lett. 1992; 263-266).
(§2) Stock solutions were made up as follows: • Assay Buffer: 100 mM Tris-HCl pH 7.6 containing 100 mM NaCl, 10 mM CaCl2, and 0.05% Brij 35 • Substrate: 0.4 mM McaPLGLDpaAR (from Bachem) (0.437 mg/ml) stock solution in 100% DMSO (stored at −20° C.). Dilute to 8 μM in assay buffer. • Enzyme: Recombinant human 92 kDa gelatinase (MMP-9; APMA (4-aminophenyl • mercuric acetate)—activated if necessary) appropriately diluted in assay buffer.
(§3) Test Compounds were prepared initially as 10 mM compound solution in 100% DMSO, diluted to 1 mM in 100% DMSO, then serially diluted 3-fold in 100% DMSO across columns 1-10 of a 96-well microtitre plate Assay concentration range, 100 μM (column 1) to 5.1 nM (column 10)
(§4) The assay was performed in a total volume of 100 μl per well in 96-well microtitre plates. Activated enzyme (20 μl) was added to the wells followed by 20 μl of assay buffer. Appropriate concentrations of test compounds dissolved in 10 μl of DMSO were then added followed by 50 μl of McaPLGLDpaAR (8 μM, prepared by dilution of DMSO stock in assay buffer). For each assay ten concentrations of test compound were examined in duplicate. Control wells lack either enzyme or test compound. The reactions were incubated at 37° C. for 2 hours. The fluorescence at 405 nm was measured immediately with an SLT Fluostar fluorometer (SLT Labinstruments GmbH, Grödig, Austria) using 320 nm excitation, without stopping the reaction.
(§5) The effect of the test compound was determined from the dose response curve generated by the 10 duplicate concentrations of inhibitor. The IC50 (the concentration of compound required to give a 50% decrease in enzyme activity) was obtained by fitting data to the equation, Y=a+((b−a)/(1+(c/X)^d)). (Y=inhibition achieved for a particular dose; X=the dose in nM; a=minimum y or zero % inhibition; b=maximum y or 100% inhibition; c=is the IC50; d=is the slope). The result was rounded to one significant figure.

collagenase (MMP1) = biological target: T1, collagenase (MMP1) (Homo sapiens, UniProt P03956); test: MMP1 enzyme inhibition assay (fluorogenic peptide substrate McaPLGLDpaAR); conditions: protocol as for MMP9 assay
T1 sequence (P03956 100-469): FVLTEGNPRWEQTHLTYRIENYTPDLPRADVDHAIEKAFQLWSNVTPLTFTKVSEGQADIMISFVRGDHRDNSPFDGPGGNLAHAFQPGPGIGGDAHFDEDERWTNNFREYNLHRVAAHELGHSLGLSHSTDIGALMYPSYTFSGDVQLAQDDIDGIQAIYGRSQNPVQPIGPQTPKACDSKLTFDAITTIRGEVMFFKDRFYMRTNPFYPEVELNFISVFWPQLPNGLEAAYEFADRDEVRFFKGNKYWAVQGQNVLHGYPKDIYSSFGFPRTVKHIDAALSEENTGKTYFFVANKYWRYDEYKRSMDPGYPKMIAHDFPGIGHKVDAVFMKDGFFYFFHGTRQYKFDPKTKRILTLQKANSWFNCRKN
Experimental: as §2, §3, §4, §5
as §1, with “• Compounds” for “Compounds”, “collagenase (MMP1)” for “92 kDa gelatinase (MMP9)”, “263-266). The protocol for this assay was as described for the MMP9 assay above.” for “263-266).”

metalloelastase (MMP12) = metalloelastase (MMP12) (Homo sapiens, UniProt P39900); test: MMP12 enzyme inhibition assay (fluorogenic peptide substrate McaPLGLDpaAR); conditions: protocol as for MMP9 assay
Experimental: as §2, §3, §4, §5
as §1, with “metalloelastase (MMP12)” for “92 kDa gelatinase (MMP9)”, “263-266). The protocol for this assay was as described for the MMP9 assay above.” for “263-266).”

Sequence of 92 kDa gelatinase (MMP9) (P14780 107-707 limits assumed): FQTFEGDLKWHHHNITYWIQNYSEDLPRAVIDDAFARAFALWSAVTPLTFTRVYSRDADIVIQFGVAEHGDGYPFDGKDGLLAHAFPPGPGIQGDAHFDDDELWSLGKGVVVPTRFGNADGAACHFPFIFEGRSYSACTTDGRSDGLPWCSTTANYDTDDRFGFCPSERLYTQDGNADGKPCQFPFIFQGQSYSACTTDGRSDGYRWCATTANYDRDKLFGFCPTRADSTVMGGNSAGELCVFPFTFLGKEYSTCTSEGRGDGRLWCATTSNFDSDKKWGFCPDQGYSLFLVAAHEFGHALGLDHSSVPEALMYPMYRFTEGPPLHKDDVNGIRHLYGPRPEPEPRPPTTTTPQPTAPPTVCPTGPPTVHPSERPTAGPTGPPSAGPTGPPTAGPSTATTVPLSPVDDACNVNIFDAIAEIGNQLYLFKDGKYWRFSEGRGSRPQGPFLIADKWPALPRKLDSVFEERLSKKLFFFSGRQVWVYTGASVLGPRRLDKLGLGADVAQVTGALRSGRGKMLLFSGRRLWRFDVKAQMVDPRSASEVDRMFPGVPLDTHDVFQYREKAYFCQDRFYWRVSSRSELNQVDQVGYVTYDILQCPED
Sequence of metalloelastase (MMP12) (P39900 106-470): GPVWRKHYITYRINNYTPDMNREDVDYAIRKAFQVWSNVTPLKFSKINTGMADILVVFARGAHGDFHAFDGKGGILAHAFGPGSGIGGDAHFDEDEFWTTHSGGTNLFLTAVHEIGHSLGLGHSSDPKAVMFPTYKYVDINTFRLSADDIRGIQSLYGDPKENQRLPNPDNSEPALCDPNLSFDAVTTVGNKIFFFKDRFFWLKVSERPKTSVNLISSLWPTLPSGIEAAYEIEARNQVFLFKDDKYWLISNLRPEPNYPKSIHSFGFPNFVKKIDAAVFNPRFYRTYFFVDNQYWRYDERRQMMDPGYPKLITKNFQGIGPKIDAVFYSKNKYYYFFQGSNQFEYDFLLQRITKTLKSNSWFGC

Compound	IC50 (92 kDa gelatinase (MMP9)) [µM]	IC50 (collagenase (MMP1)) [µM]	IC50 (metalloelastase (MMP12)) [µM]
CC(C)C[C@@H](C(=O)N[C@H](c1noc(CC(C)(C)C)n1)C(C)(C)C)[C@H](O)C(=O)NO [Example 14, 2S-Hydroxy-3R-[1S-(5-(2,2-dimethyl-propyl)-[1,2,4]oxadiazol-3-yl)-2,2-dimethyl-propylcarbamoyl]-5-methyl Hexanohydroxamic Acid]	1 to 10	1 to 10	< 0.1
CC(C)C[C@@H](C(=O)N[C@H](c1noc(C2CCCC2)n1)C(C)(C)C)[C@H](O)C(=O)NO [Example 9, 2S-Hydroxy-3R-[1S-(5-cyclopentyl-[1,2,4]oxadiazol-3-yl)-2,2-dimethyl-propylcarbamoyl]-5-methyl Hexanohydroxamic Acid]	1 to 10	0.1 to 1	< 0.1
CCOc1ccc(CCC[C@@H](C(=O)N[C@H](c2noc(-c3cccs3)n2)C(C)(C)C)[C@H](O)C(=O)NO)cc1 [Example 3]	< 0.1	> 10	< 0.1
CC(C)C[C@@H](C(=O)N[C@H](c1noc(CC2CCCC2)n1)C(C)(C)C)[C@H](O)C(=O)NO [Example 6, 2S-Hydroxy-3R-[1S-(5-cyclopentylmethyl-[1,2,4]oxadiazol-3-yl)-2,2-dimethyl-propylcarbamoyl]-5-methyl Hexanohydroxamic Acid]	1 to 10	0.1 to 1	< 0.1
CC(C)(C)[C@H](NC(=O)[C@H](CCCc1cc(C(F)(F)F)cc(C(F)(F)F)c1)[C@H](O)C(=O)NO)c1noc(-c2ccco2)n1 [Example 34, 2R-[3-(3,5-Bis-trifluoromethyl-phenyl)-propyl]-N1-[1S-(5-furan-2-yl-[1,2,4]oxadiazol-3-yl)-2,2-dimethyl-propyl]-3S,N4-dihydroxy-succinamide]	> 10	> 10	> 10
CCCCCCCCCCCCCCCC[C@H](CC(=O)O)C(=O)N[C@H](c1nc(-c2ccccc2)no1)C(C)(C)C [Example 27, 3R-[2,2-Dimethyl-1S-(3-phenyl-[1,2,4]oxadiazol-5-yl)-propylcarbamoyl]-nonadecanoic Acid]	> 10		> 10
CC(C)Cc1nc([C@@H](NC(=O)[C@H](CC(C)C)[C@H](O)C(=O)NO)C(C)(C)C)no1 [Example 11, 2S-Hydroxy-3R-[1S-(5-isobutyl-[1,2,4]oxadiazol-3-yl)-2,2-dimethyl-propylcarbamoyl]-5-methyl Hexanohydroxamic Acid]	1 to 10	1 to 10	< 0.1
CC(C)(C)[C@H](NC(=O)[C@H](CCCc1cc(C(F)(F)F)cc(C(F)(F)F)c1)[C@H](O)C(=O)NO)c1noc(-c2cccs2)n1 [Example 33, 2R-[3-(3,5-Bis-trifluoromethyl-phenyl)-propyl]-N1-[2,2-dimethyl-1S-(5-thiophen-2-yl-[1,2,4]oxadiazol-3-yl)-propyl]-3S, N4-dihydroxy-succinamide]	> 10	> 10	0.1 to 1
CC(C)C[C@@H](C(=O)N[C@H](c1noc(C(C)(C)C)n1)C(C)(C)C)[C@H](O)C(=O)NO [Example 12, 2S-Hydroxy-3R-[1S-(5-tert-butyl-[1,2,4]oxadiazol-3-yl)-2,2-dimethyl-propylcarbamoyl]-5-methyl Hexanohydroxamic Acid]	0.1 to 1	0.1 to 1	< 0.1
CC(C)(C)[C@H](NC(=O)[C@H](CCCc1ccc(Cl)cc1)CC(=O)O)c1noc(-c2ccccc2)n1 [Example 28, 6-(4-Chloro-phenyl)-3R-[2,2-dimethyl-1S-(5-phenyl-[1,2,4]oxadiazol-3-yl)-propylcarbamoyl]-hexanoic Acid]			> 10
CC(C)C[C@@H](C(=O)N[C@H](c1noc(-c2ccco2)n1)C(C)(C)C)[C@H](O)C(=O)O [Example 30, 3R-[1S-(5-Furan-2-yl-[1,2,4]oxadiazol-3-yl)-2,2-dimethyl-propylcarbamoyl]-2S-hydroxy-5-methyl-hexanoic Acid]	> 10	> 10	1 to 10
CCCCCCCCCCCCCC[C@H](CC(=O)O)C(=O)N[C@H](c1nc(-c2ccccc2)no1)C(C)(C)C [Example 26, 3R-[2,2-Dimethyl-1S-(3-phenyl-[1,2,4]oxadiazol-5-yl)-propylcarbamoyl]-heptadecanoic Acid]	> 10		> 10

Other lines, results leading:

IC50 (92 kDa gelatinase (MMP9)) [µM]	IC50 (collagenase (MMP1)) [µM]	IC50 (metalloelastase (MMP12)) [µM]	Compound
0.1 to 1	0.1 to 1	< 0.1	CC(C)C[C@@H](C(=O)N[C@H](c1nc(-c2ccccc2)no1)C(C)C)[C@H](O)C(=O)NO [Example 19, 2S, N1-Dihydroxy-3R-isobutyl-N4-[2-methyl-1S-(3-phenyl-[1,2,4]oxadiazol-5-yl)-propyl]-succinamide]
0.1 to 1	0.1 to 1	< 0.1	Cc1ccc(-c2nc([C@@H](NC(=O)[C@H](CC(C)C)[C@H](O)C(=O)NO)C(C)(C)C)no2)cc1 [Example 15, 2S-Hydroxy-3R-[1S-(5-p-tolyl-[1,2,4]oxadiazol-3-yl)-2,2-dimethyl-propylcarbamoyl]-5-methyl Hexanohydroxamic Acid]
< 0.1	0.1 to 1	< 0.1	C=CC[C@H](C(=O)NO)[C@@H](CC(C)C)C(=O)N[C@H](c1nc(C)no1)C(C)(C)C [Example 23, 2S-Allyl-3R-[2,2-dimethyl-I S-(3-methyl-[1,2,4]oxadiazol-5-yl)-propylcarbamoyl]-5-methyl-hexanohydroxamic Acid]
0.1 to 1	0.1 to 1	< 0.1	CO[C@H](C(=O)NO)[C@@H](CC(C)C)C(=O)N[C@@H](Cc1ccccc1)c1nc(C)no1 [Example 25, 2S-Methoxy-5-methyl-3R-[1S-(3-methyl-[1,2,4]oxadiazol-5-yl)-2-phenyl-ethylcarbamoyl]-hexanohydroxamic Acid]
1 to 10	1 to 10	< 0.1	CC(C)C[C@@H](C(=O)N[C@H](c1noc(Cc2ccccc2)n1)C(C)(C)C)[C@H](O)C(=O)NO [Example 10, 2S-Hydroxy-3R-[1S-(5-benzyl-[1,2,4]oxadiazol-3-yl)-2,2-dimethyl-propylcarbamoyl]-5-methyl Hexanohydroxamic Acid]
1 to 10	1 to 10	0.1 to 1	CC(C)C[C@@H](C(=O)N[C@H](c1noc(Cc2cccs2)n1)C(C)(C)C)[C@H](O)C(=O)NO [Example 7, 2S-Hydroxy-3R-[1S-(5-thiopen-2-ylmethyl-[1,2,4]oxadiazol-3-yl)-2,2-dimethyl-propylcarbamoyl]-5-methyl Hexanohydroxamic Acid]
0.1 to 1	0.1 to 1	< 0.1	CC(C)C[C@@H](C(=O)N[C@H](c1noc(-c2ccccc2)n1)C(C)(C)C)[C@H](O)C(=O)NO [Example 1, 3R-[2,2-Dimethyl-1 S-(5-phenyl-[1,2,4]oxadiazol-3-yl)-propylcarbamoyl]-2S-hydroxy-5-methyl-Hexanohydroxamic Acid]
	< 0.1		C=CC[C@H](C(=O)NO)[C@@H](CC(C)C)C(=O)N[C@@H](Cc1ccccc1)c1nc(C)no1 [Example 22, 2S-Allyl-5-methyl-3R-[2-phenyl-1S-(3-methyl-[1,2,4]oxadiazol-5-yl)-ethylcarbamoyl]-hexanohydroxamic Acid]
